Literature values, collected in patent US20150150812A1, “CONTROLLED RELEASE FORMULATIONS WITH […]” (Egalet Ltd., priority 2009, published 2015).

System: postoperative patients

CN1CC[C@]23c4c5ccc(O)c4O[C@H]2[C@@H](O)C=C[C@H]3[C@H]1C5 [morphine]
Calculated mean (SD) MEAC (10 postoperative patients, Dahlström et al (1982)): 16 (9) ng/mL
Estimated MEAC (postoperative patients, patient-controlled analgesia, Graves et al (1985)): 20 to 40 ng/mL
